Data on 65 compounds can be found in US12703706B2, “Anthelmintic compounds comprising a thienopyridine structure” (Intervet Inc., priority 2020, dated 2026).

This test has as its target human Maxi K channel (BK channel), KCNMA1 (KCa1.1) and beta1 (KCNMB1) subunits (Homo sapiens, UniProt Q12791).

The structures appear in SMILES notation. Some results are limits rather than exact numbers.

Chain of human Maxi K channel (BK channel), KCNMA1 (KCa1.1) and beta1 (KCNMB1) subunits (Q12791 1-1178 isoform Q12791-5): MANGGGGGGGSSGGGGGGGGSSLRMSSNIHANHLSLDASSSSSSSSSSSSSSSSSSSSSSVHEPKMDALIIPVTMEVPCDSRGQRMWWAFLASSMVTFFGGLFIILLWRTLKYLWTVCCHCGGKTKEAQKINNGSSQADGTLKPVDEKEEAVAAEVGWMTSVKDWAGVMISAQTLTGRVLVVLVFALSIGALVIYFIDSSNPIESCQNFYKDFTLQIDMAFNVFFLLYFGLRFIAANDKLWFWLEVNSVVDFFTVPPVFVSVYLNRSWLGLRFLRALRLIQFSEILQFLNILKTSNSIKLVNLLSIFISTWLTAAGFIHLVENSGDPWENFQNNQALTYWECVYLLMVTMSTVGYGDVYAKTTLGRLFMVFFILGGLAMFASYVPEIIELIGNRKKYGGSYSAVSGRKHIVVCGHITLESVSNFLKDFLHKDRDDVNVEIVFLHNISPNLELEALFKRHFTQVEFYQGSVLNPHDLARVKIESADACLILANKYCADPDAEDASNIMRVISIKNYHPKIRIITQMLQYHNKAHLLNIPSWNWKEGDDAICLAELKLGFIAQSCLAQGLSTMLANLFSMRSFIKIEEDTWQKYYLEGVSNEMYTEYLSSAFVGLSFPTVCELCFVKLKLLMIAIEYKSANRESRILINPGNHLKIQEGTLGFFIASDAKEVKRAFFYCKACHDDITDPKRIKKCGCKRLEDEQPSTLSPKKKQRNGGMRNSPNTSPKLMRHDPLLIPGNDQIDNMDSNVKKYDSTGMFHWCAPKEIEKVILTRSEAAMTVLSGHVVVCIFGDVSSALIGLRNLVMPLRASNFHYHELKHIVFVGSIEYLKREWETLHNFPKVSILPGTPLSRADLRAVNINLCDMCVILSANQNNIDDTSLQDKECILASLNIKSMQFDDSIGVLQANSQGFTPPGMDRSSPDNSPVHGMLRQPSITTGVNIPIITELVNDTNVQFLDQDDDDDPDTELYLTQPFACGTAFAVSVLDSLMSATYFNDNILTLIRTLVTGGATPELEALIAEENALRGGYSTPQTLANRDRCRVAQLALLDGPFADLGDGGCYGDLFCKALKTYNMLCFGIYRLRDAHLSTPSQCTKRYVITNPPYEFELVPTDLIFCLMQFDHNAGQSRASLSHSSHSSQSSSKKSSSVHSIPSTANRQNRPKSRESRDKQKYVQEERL
Chain of human Maxi K channel (BK channel), KCNMA1 (KCa1.1) and beta1 (KCNMB1) subunits (Q16558 whole entry partner): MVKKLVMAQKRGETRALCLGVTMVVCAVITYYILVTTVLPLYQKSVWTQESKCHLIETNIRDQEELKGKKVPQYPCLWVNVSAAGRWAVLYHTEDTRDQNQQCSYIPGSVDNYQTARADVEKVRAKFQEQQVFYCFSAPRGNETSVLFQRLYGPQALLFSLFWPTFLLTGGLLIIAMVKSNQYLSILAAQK
Protocol: In Vitro Assay: Agonistic Activity at the Human Maxi K Channel (BK Channel)
A CHO K1 cell line was stably transfected with the KCNMA1 (KCa1.1, U11058) and betal (KCNMB1) subunits of the human Maxi K channel (Ponte et al, Molecular Pharmacology 2012, 81(4), 567-577).
Cells were seeded in microtiter plates (black 384-well MTP, clear bottom) in a concentration of 20,000 cells/well in 25 μl medium and cultured for 20 to 24 hours at 37° C. and 5% CO2. After incubation, 25 μl of FMP-dye Blue-Tyrode's was added to each well and incubated at room temperature for 30 min. Ten minutes after addition of 12.5 μl compound solution, the plates are transferred to the FLIPR for measurement.
For the membrane potential measurements, plates were placed in the FLIPR Penta (Molecular Devices). The baseline measurement of the fluorescence was stared for 20 sec (Exc. 510-545 nm, Emm. 565-625 nm). Potential channel opening measurement was started by addition of 25 μl KCl-Tyrode (final assay concentration of the KCl-Tyrode: 70 mM KCl, 2 mM CaCl2, 1 mM MgCl2, 0.8 mM NaH2PO4, 5 mM Glucose, 28 mM Hepes, pH 7.4, including the voltage sensitive dye). The complete measurement takes 150 s.
EC50 values were determined in triplicate utilizing compound dilution series. The data were determined at least in two independent tests. The data were proceeded by using the ActivityBase XE Runner software (IDBS) for curve fitting and calculation of the half-maximal effective concentration.

Take `O=C(NC1CCOc2ccccc21)c1cnc2c(-c3cccc(Cl)c3Cl)csc2c1N1CC(F)(F)C1` (centres unmarked) [Compound 27]: the EC50 is over 30 µM. Turning to `Cc1sc2c(N3CCOCC3)c(C(=O)N[C@H]3CCc4ccccc43)cnc2c1-c1cc(Cl)cc(Cl)c1` [Compound 69], the EC50 is over 30 µM.

`CN(C)c1c(C(=O)N[C@H]2CCCc3ccccc32)cnc2c(-c3cccc(Cl)c3Cl)csc12` [Compound 21] showed an EC50 of over 30 µM. Under `O=C(N[C@H]1CCOc2ccccc21)c1cnc2c(-c3cc(Cl)cc(Cl)c3)csc2c1N1CCOCC1` [Compound 1] stands over 30 µM; under `Cc1sc2c(N(C)C)c(C(=O)N[C@H]3CCOc4ccccc43)cnc2c1-c1cccc(OC(F)(F)F)c1` [Compound 105], over 30 µM. The value for `Cc1sc2c(N3CCOCC3)c(C(=O)N[C@H]3CCOc4ccccc43)cnc2c1-c1cccc(C(F)(F)F)c1` [Compound 108] was over 30 µM; that for `CN(C)c1c(C(=O)Nc2cccc3ccccc23)cnc2c(-c3cc(Cl)cc(Cl)c3)csc12` [Compound 50] was over 30 µM. For `Cc1sc2c(N3CCOCC3)c(C(=O)N[C@H]3CCc4ccccc43)cnc2c1-c1cc(F)cc(F)c1` [Compound 111], the EC50 is over 30 µM. Under `O=C(N[C@H]1CCOc2ccccc21)c1cnc2c(-c3cccc(Cl)c3Cl)csc2c1N1CC(F)(F)C1` [Compound 26] stands over 30 µM; under `COc1cccc(-c2csc3c(N4CCOCC4)c(C(=O)N[C@H]4CCOc5ccccc54)cnc23)c1` [Compound 43], over 30 µM. Under `CN(C)c1c(C(=O)N[C@H]2CCOc3ccccc32)cnc2c(-c3cccc(OC(F)(F)F)c3)csc12` [Compound 97] stands over 30 µM; under `CN1CCN(c2c(C(=O)NC3CCCc4ccccc43)cnc3c(-c4cc(Cl)cc(Cl)c4)csc23)CC1` (centres unmarked) [Compound 30], over 30 µM. The value for `CN(CCO)c1c(C(=O)N[C@H]2CCOc3ccccc32)cnc2c(-c3cc(F)cc(F)c3F)csc12` [Compound 95] was over 30 µM; that for `Cc1sc2c(N(C)C)c(C(=O)Nc3cccc4ccccc34)cnc2c1-c1cccc(Cl)c1Cl` [Compound 37] was over 30 µM; that for `Cc1sc2c(N3CCOCC3)c(C(=O)N[C@H]3CCCc4ccccc43)cnc2c1-c1cc(Cl)cc(Cl)c1` [Compound 67] was over 30 µM. Take `Cc1sc2c(N3CCOCC3)c(C(=O)Nc3cccc4ccccc34)cnc2c1-c1cccc(Cl)c1Cl` [Compound 74]: the EC50 is over 30 µM. In the case of `Cc1cccc(-c2csc3c(N4CCOCC4)c(C(=O)N[C@H]4CCOc5ccccc54)cnc23)c1C` [Compound 44], the EC50 was over 30 µM. Under `CN1CCN(c2c(C(=O)N[C@H]3CCOc4ccccc43)cnc3c(-c4cc(Cl)cc(Cl)c4)csc23)CC1` [Compound 19] stands over 30 µM; under `Cc1sc2c(N3CC(F)C3)c(C(=O)N[C@H]3CCc4ccccc43)cnc2c1-c1cccc(Cl)c1Cl` [Compound 63], over 30 µM. With `CN(C)c1c(C(=O)N[C@H]2CCCc3ccccc32)cnc2c(-c3cc(Cl)cc(Cl)c3)csc12` [Compound 31], the EC50 is over 30 µM. Turning to `Cc1sc2c(N3CCOCC3)c(C(=O)N[C@H]3CCc4ccccc43)cnc2c1-c1cc(F)cc(F)c1F` [Compound 110], the EC50 was over 30 µM. In the case of `C[C@H](NC(=O)c1cnc2c(-c3cc(Cl)cc(Cl)c3)csc2c1N1CCOCC1)c1ccccc1` [Compound 2], the EC50 is over 30 µM. Under `Cc1sc2c(N(C)C)c(C(=O)N[C@H]3CCCc4ccccc43)cnc2c1-c1cc(Cl)cc(Cl)c1` [Compound 38] stands over 30 µM; under `Cc1sc2c(N3CC(F)(F)C3)c(C(=O)N[C@H]3CCc4ccccc43)cnc2c1-c1cccc(Cl)c1Cl` [Compound 57], over 30 µM; under `O=C(N[C@H]1CCOc2ccccc21)c1cnc2c(-c3cc(F)cc(F)c3)csc2c1N1CC(F)C1` [Compound 92], over 30 µM. The value for `CN(C)c1c(C(=O)N[C@H]2CCOc3ccccc32)cnc2c(-c3cc(F)cc(F)c3F)csc12` [Compound 23] was over 30 µM; that for `O=C(N[C@H]1CCOc2ccccc21)c1cnc2c(-c3cc(F)cc(F)c3F)csc2c1NCCO` [Compound 94] was over 30 µM. As for `O=C(Nc1cccc2ccccc12)c1cnc2c(-c3cc(Cl)cc(Cl)c3)csc2c1N1CCOCC1` [Compound 49], the EC50 was over 30 µM. Regarding `O=C(N[C@H]1CCOc2ccccc21)c1cnc2c(-c3cc(F)cc(F)c3F)csc2c1N1CCC1` [Compound 84], the EC50 is over 30 µM. Compound `CN(C)c1c(C(=O)NC2CCOc3ccccc32)cnc2c(-c3cccc(Cl)c3Cl)csc12` (centres unmarked) [Compound 28] showed an EC50 of over 30 µM. Under `Cc1sc2c(N(C)C)c(C(=O)N[C@H]3CCCc4ccccc43)cnc2c1-c1cccc(Cl)c1Cl` [Compound 35] stands over 30 µM; under `O=C(N[C@H]1CCOc2ccccc21)c1cnc2c(-c3cc(F)cc(F)c3)csc2c1N1CCC1` [Compound 83], over 30 µM. The value for `CN(C)c1c(C(=O)N[C@H]2CCOc3ccccc32)cnc2c(-c3cccc(C(F)(F)F)c3)csc12` [Compound 47] was over 30 µM. In turn, `Cc1sc2c(N3CCOCC3)c(C(=O)N[C@H]3CCOc4ccccc43)cnc2c1-c1cc(F)cc(F)c1` [Compound 107] came in with an EC50 of over 30 µM. `O=C(N[C@H]1CCOc2ccccc21)c1cnc2c(-c3cc(F)cc(F)c3F)csc2c1N1CC(F)(F)C1` [Compound 40]: the EC50 was over 30 µM.

In turn, `O=C(N[C@H]1CCc2ccccc21)c1cnc2c(-c3cc(F)cc(F)c3F)csc2c1N1CC(F)(F)C1` [Compound 41] displayed an EC50 of over 30 µM. On to `O=C(N[C@H]1CCc2ccccc21)c1cnc2c(-c3cccc(Cl)c3Cl)csc2c1N1CC(F)C1` [Compound 99], for which the EC50 is over 30 µM. The value for `O=C(N[C@H]1CCOc2ccccc21)c1cnc2c(-c3cc(Cl)cc(Cl)c3)csc2c1N1CC(F)C1` [Compound 101] was over 30 µM; that for `CN(C)c1c(C(=O)NC2COc3ccccc32)cnc2c(-c3cc(Cl)cc(Cl)c3)csc12` (centres unmarked) [Compound 96] was over 30 µM.

In turn, `C[C@H](NC(=O)c1cnc2c(-c3cccc(Cl)c3Cl)csc2c1N1CCOCC1)c1ccccc1` [Compound 5] came in with a half-maximal effective concentration (EC50) of over 30 µM. Under `Cc1sc2c(N3CCOCC3)c(C(=O)N[C@H]3CCOc4ccccc43)cnc2c1-c1cccc(OC(F)(F)F)c1` [Compound 109] stands over 30 µM.

The compound `Cc1sc2c(N3CC(F)C3)c(C(=O)N[C@H]3CCc4ccccc43)cnc2c1-c1cc(Cl)cc(Cl)c1` [Compound 66] returned an EC50 of over 30 µM. Under `Cc1sc2c(N3CC(F)(F)C3)c(C(=O)N[C@H]3CCc4ccccc43)cnc2c1-c1cc(Cl)cc(Cl)c1` [Compound 60] stands over 30 µM.

On to `O=C(N[C@H]1CCCc2ccccc21)c1cnc2c(-c3cc(Cl)cc(Cl)c3)csc2c1N1CCOCC1` [Compound 32], for which the EC50 is over 30 µM. Under `Cc1sc2c(N3CCOCC3)c(C(=O)Nc3cccc4ccccc34)cnc2c1-c1cc(Cl)cc(Cl)c1` [Compound 70] stands over 30 µM; under `CN1CCN(c2c(C(=O)N[C@H]3CCCc4ccccc43)cnc3c(-c4cc(Cl)cc(Cl)c4)csc23)CC1` [Compound 18], over 30 µM. As to `O=C(N[C@H]1CCOc2ccccc21)c1cnc2c(-c3cccc(C(F)(F)F)c3)csc2c1N1CCOCC1` [Compound 42], the EC50 was over 30 µM. In the case of `O=C(N[C@H]1CCOc2ccccc21)c1cnc2c(-c3cc(F)cc(F)c3F)csc2c1NC1CC1` [Compound 88], the EC50 was over 30 µM. The value for `O=C(N[C@H]1CCOc2ccccc21)c1cnc2c(-c3cc(F)cc(F)c3)csc2c1NC1CC1` [Compound 86] was over 30 µM; that for `O=C(N[C@H]1CCc2ccccc21)c1cnc2c(-c3cc(F)cc(F)c3F)csc2c1N1CCOCC1` [Compound 16] was over 30 µM. `CN1CCN(c2c(C(=O)NC3CCOc4ccccc43)cnc3c(-c4cccc(Cl)c4Cl)csc23)CC1` (centres unmarked) [Compound 20] showed an EC50 of over 30 µM. Take `O=C(N[C@H]1CCOc2ccccc21)c1cnc2c(-c3cccc(C(F)(F)F)c3)csc2c1N1CC(F)C1` [Compound 93]: the EC50 is over 30 µM. Under `Cc1sc2c(N3CC(F)C3)c(C(=O)N[C@H]3CCCc4ccccc43)cnc2c1-c1cc(Cl)cc(Cl)c1` [Compound 64] stands over 30 µM; under `O=C(N[C@H]1CCOc2ccccc21)c1cnc2c(-c3cc(Cl)cc(Cl)c3)csc2c1N1CC(F)(F)C1` [Compound 76], over 30 µM; under `CN(C)c1c(C(=O)N[C@H]2CCc3ccccc32)cnc2c(-c3cc(F)cc(F)c3F)csc12` [Compound 25], over 30 µM. Under `O=C(N[C@H]1CCOc2ccccc21)c1cnc2c(-c3cccc(C(F)(F)F)c3)csc2c1N1CCC1` [Compound 90] stands over 30 µM. Under `O=C(N[C@H]1CCOc2ccccc21)c1cnc2c(-c3cccc(F)c3F)csc2c1NC1CC1` [Compound 87] stands over 30 µM; under `O=C(N[C@H]1CCc2ccccc21)c1cnc2c(-c3cc(Cl)cc(Cl)c3)csc2c1N1CC(F)(F)C1` [Compound 77], over 30 µM.

As to `Cc1sc2c(N3CCOCC3)c(C(=O)N[C@H]3CCc4ccccc43)cnc2c1-c1cccc(Cl)c1Cl` [Compound 73], the EC50 was over 30 µM.

The compound `CN(C)c1c(C(=O)N[C@H]2CCOc3ccccc32)cnc2c(-c3cccc(F)c3F)csc12` [Compound 46] registered a half-maximal effective concentration (EC50) of over 30 µM. The value for `Cc1sc2c(N3CC(F)(F)C3)c(C(=O)N[C@H]3CCCc4ccccc43)cnc2c1-c1cccc(Cl)c1Cl` [Compound 55] was over 30 µM. Compound `O=C(NC1COc2ccccc21)c1cnc2c(-c3cccc(Cl)c3Cl)csc2c1N1CCOCC1` (centres unmarked) [Compound 79] returned an EC50 of over 30 µM.

In turn, `CN(C)c1c(C(=O)N[C@H]2CCc3ccccc32)cnc2c(-c3cccc(Cl)c3Cl)csc12` [Compound 12] yielded an EC50 of over 30 µM. For the compound `COCCNc1c(C(=O)N[C@H]2CCOc3ccccc32)cnc2c(-c3cc(F)cc(F)c3F)csc12` [Compound 82], the concentration for a half-maximal effect (EC50) is over 30 µM. Under `Cc1sc2c(N3CC(F)(F)C3)c(C(=O)N[C@H]3CCOc4ccccc43)cnc2c1-c1cc(Cl)cc(Cl)c1` [Compound 59] stands over 30 µM.
